We go through one molecule from US20060167098A1, “Method for the treatment of diseases linked to an accumulation of triglycerides and cholesterol” (Institut National De La Sante ET De LA Recherche Medicale …, priority 2003, published 2006).

A short description of assay [1]: Body fat mass by DEXA in Swiss (lean) mice, standard diet, fasted 48 hours before measurement. The format is in vivo. Conditions: for decrease of body fat mass: 100 mg/kg/day in drinking water, vs control; for decrease of body fat mass / body fat mass: fasted 48 h; for body fat mass: mean±SEM. An excerpt: Six to 8 weeks old male (Crl:CD-1(ICR)BR) Swiss mice, and six to ten weeks old male RjOrl Swiss mice (i.e. lean mice) weighing 28 and 32 grams were purchased from Dépré (Saint Doulchard, France). Ten to 12 weeks old ob/ob male (C57BL/6-ob) mice (i.e. obese mice), weighing 40 to 44 grams were purchased from Janvier (Le-Genest-St-Isle, France). In one experiment, younger ob/ob mice (5-6 weeks old) weighing 25-26 grams were also studied. In genetically obese ob/ob mice, a mutation on the gene of leptin prevents the normal production of this hormone, thus increasing appetite and decreasing energy consumption (Friedman J. M., Halaas J. L., 1998, Nature 395 : 763-770). […] The animals were acclimatized for one to two weeks before the start of experiments.
D,L-β-Aminoisobutyric acid (BAIBA) was purchased from Sigma-Aldrich. BAIBA has been administered in drinking water at the dose of 100 mg/kg/day or 500 mg/kg/day for 6 weeks, 2 months or 4 months according to the experiments.
The in vivo determination of body fat mass in anesthetized mice has been performed by “DEXA” (Dual Energy X-ray Absorptiometry) (Pietriobelli A., Formica C., Wang Z., Heymsfield S. B., 1996, Am. J. Physiol. 271 (Endocrinol. Metab. 34): E941-E951)). […] It is noteworthy that DEXA also gives for each investigated animal its lean mass that is the total amount of water and proteins (in grams) in the body (excluding the head). Therefore, for a given animal, DEXA allows the determination of the percentage of body fat which is its body fat mass divided by the sum of its body lean and fat masses (fat mass/(lean mass+fat mass)). The “DEXA” apparatus was a Piximus® from Lunar Corporation (Madison, Wis.). Mice were anesthetized thanks to a mixture of xylazine and ketamine.
Procedure 2: the animals were fasted for 48 hours before DEXA measurements which have been performed 2 weeks (T2) and 6 weeks (T6) after starting the treatment. In this procedure, DEXA measurement before the beginning of treatment has not been performed. Comparisons of the different parameters (e.g. fat mass, body weight) between both groups were performed at T2 and at T6.
In a first series of experiments, the effects of 100 mg/kg/day of β-aminoisobutyric acid (BAIBA) on body fat were investigated in Swiss (lean) mice fed with a standard diet (A04 chow) and fasted for 48 hours before DEXA measurements. Mice were 6 to 8 weeks old at the beginning of the experiment. DEXA was performed twice after the initiation of the treatment. In this experiment, BAIBA decreased body fat mass by 31% and 25%, respectively after 2 and 6 weeks of treatment. The results in FIG. 1 indicate that: • after 2 weeks, body fat mass was 2.63±0.23 and 1.80±0.11 grams, respectively in control mice (n=7) and mice receiving BAIBA (n=7); • after 6 weeks, body fat mass was 3.40±0.27 and 2.56±0.32 grams, respectively in control mice and mice receiving BAIBA.

Assay [2] in a line: Liver triglycerides in ob/ob mice, 6 weeks. Conditions: 100 mg/kg/day 6 weeks, fasted 48 h. The format is in vivo. The procedure: Total lipids and triglycerides in the liver of animals were assessed according to a procedure partially reported by (Letteron P., Fromenty B., Terris B., Degott C., Pessayre D., 1996, J. Hepatol. 24 : 200-208). Briefly, after killing of the animals, livers were removed and homogenized in sterile water. Hepatic lipids were thus extracted by a mixture of chloroform and methanol (2/1; v/v). After removal of the aqueous phase, the organic phase (chloroform containing the lipids) was evaporated and the amount of lipids was determined by gravimetry. Lipids were subsequently resuspended in isopropanol (final concentration, ca. 10 mg/mL). After removal of the phopholipids by using aluminum hydroxide hydrate, triglycerides were determined colorimetrically by using periodate and the Nash's reagent (containing acetylacetone, ammonium acetate and isopropanol). The reaction generates diacetyldihydrolutidine which is assayed by spectrophotometry (λ=410 nm).
Liver triglycerides were assessed in ob/ob mice fed with a standard diet and receiving or not of 100 mg/kg/day of β-aminoisobutyric acid (BAIBA) in the drinking water during 6 weeks. Mice were 10 weeks old at the beginning of the experiment. These animals (7 controls and 10 treated with BAIBA) were different from those used for the determination of body fat by DEXA in the fed state (see above, paragraph I-d). At the end of the 6 weeks of treatment mice were submitted to a 48-hour period of fast At the end of this fasting period mice were killed for assessment of liver triglycerides. […] Indeed, liver triglycerides were reduced by 16 and 12%, respectively when the values were expressed as mg/whole liver or as mg/gram of lipids.

Assay [3] in a line: Plasma glucose, insulin, adiponectin and leptin in lean mice, standard diet, 6 weeks, 48 hours fast. The format is in vivo. Conditions: 100 mg/kg/day 6 weeks, fasted 48 hours. As for the experimental part: Plasma glucose was measured on an automatic analyser (Synchron LX20 from Beckman Coulter) with a commercial kit (kit n°472500 from Beckman).
Plasma insulin, adiponectin and leptin were measured by radioimmunoassay (RIA). Insulin was measured with the Insulin-CT kit from Cis Bio International (Gif-sur-Yvette, France), whereas plasma leptin and adiponectin were assessed with kits from Linco Research Inc. (St Charles, Mo.). Leptin was not measured in ob/ob mice since these animals are genetically leptin-deficient (Friedman J. M., Halaas J. L., 1998, Nature 395: 763-770). Results regarding insulin were expressed as recommended by kit manufacturer.
Glucose, insulin, adiponectine and leptin were assessed in lean mice fed with the standard diet and receiving (13 mice) or not (12 mice) 100 mg/kg/day of β-aminoisobutyric acid in the drinking water for 6 weeks.
At the end of the 6-weeks period of treatment, mice were submitted to a fasting period for 48 hours. Plasma glucose, insulin and adiponectin were not changed in treated mice, but a trend toward lower leptin levels was observed. Indeed, plasma leptin was 3.72±0.59 and 3.14±0.34 ng/ml, respectively in control mice (n=12) and mice treated with β-aminoisobutyric acid (n=13). Leptin is an adipokine mainly secreted by adipose tissue and its plasma levels in human and mice are highly correlated with the whole adipose tissue mass (Friedman J. M. and Hallas J. L., 1998, Nature 395: 763-770). Thus, data regarding plasma leptin are in keeping with the observation that β-aminoisobutyric acid limits body fat accumulation in lean mice.

Assay [4] deals with mitochondrial beta-oxidation of fatty acids in liver. Nature of the assay: Mitochondrial beta-oxidation of fatty acids in liver.

With `CC(CN)C(=O)O` (racemic) [BAIBA, D,L-β-Aminoisobutyric acid], the “decrease of body fat mass” value in assay [1] (after 2 weeks) was 31%. Moreover, the “decrease of body fat mass” value in assay [1] (after 6 weeks) amounted to 25%. In addition, in assay [1] (100 mg/kg/day, after 2 and 6 weeks), the “body weight vs control mice” value is on record as “not significantly different”. Also, in assay [1] (100 mg/kg/day, after 2 weeks), the body fat mass is 1.80±0.11 grams. For the same molecule, the body fat mass in assay [1] (100 mg/kg/day, after 6 weeks) was 2.56±0.32 grams. In assay [2], the “reduction of liver triglycerides (values as mg/gram of lipids)” value is on record as 12% and the “reduction of liver triglycerides (values as mg/whole liver)” value is recorded as 16%. For the same molecule, the liver triglycerides in assay [2] (p<0.01) is reported as 625±14 mg/g of lipids. Moreover, in assay [3], the “plasma adiponectin vs control” value is “not changed”, the “plasma glucose vs control” value is “not changed”, the “plasma insulin vs control” value is “not changed” and the plasma leptin amounted to 3.14 ± 0.34 ng/mL. The “mitochondrial beta-oxidation of fatty acids in liver” value in assay [4] is on record as “increases”.
